Experiments:
[1] = system: NCI-H460; experiment: NCI 60-cell line growth inhibition assay; assay type: cell-based; details: Homo sapiens; Non-Small Cell Lung, NCI-H460
[2] = system: EKVX; experiment: NCI 60-cell line growth inhibition assay; assay type: cell-based; details: Homo sapiens; Non-Small Cell Lung, EKVX
[3] = system: TK-10; experiment: NCI 60-cell line growth inhibition assay; assay type: cell-based; details: Homo sapiens; Renal, TK-10
[4] = system: HeLa S-3 cells; experiment: Inhibition of cell growth of HeLa cells (SRB); assay type: cell-based, human; details: Homo sapiens, HeLa S3, 48 h, 2 days of treatment, replicate experiments
[5] = system: A549/ATCC; experiment: NCI 60-cell line growth inhibition assay; assay type: cell-based; details: Homo sapiens; Non-Small Cell Lung, A549/ATCC
[6] = MTD (NCI in vivo evaluation, Table 8); details: mouse
[7] = system: NCI-H322M; experiment: NCI 60-cell line growth inhibition assay; assay type: cell-based; details: Homo sapiens; Non-Small Cell Lung, NCI-H322M
[8] = system: MCF7; experiment: NCI 60-cell line growth inhibition assay; assay type: cell-based; details: Homo sapiens; Breast, MCF7
[9] = system: MDA-MB-435; experiment: NCI 60-cell line growth inhibition assay; assay type: cell-based; details: Homo sapiens; Breast, MDA-MB-435
[10] = system: SK-MEL-2; experiment: NCI 60-cell line growth inhibition assay; assay type: cell-based; details: Homo sapiens; Melanoma, SK-MEL-2
[11] = system: PC-3; experiment: NCI 60-cell line growth inhibition assay; assay type: cell-based; details: Homo sapiens; Prostate, PC-3
[12] = system: HCT-15; experiment: NCI 60-cell line growth inhibition assay; assay type: cell-based; details: Homo sapiens; Colon, HCT-15
[13] = system: MOLT-4; experiment: NCI 60-cell line growth inhibition assay; assay type: cell-based; details: Homo sapiens; Leukemia, MOLT-4
[14] = system: COLO 205; experiment: NCI 60-cell line growth inhibition assay; assay type: cell-based; details: Homo sapiens; Colon, COLO 205
[15] = system: SK-OV-3; experiment: NCI 60-cell line growth inhibition assay; assay type: cell-based; details: Homo sapiens; Ovarian, SK-OV-3
[16] = system: OVCAR-5; experiment: NCI 60-cell line growth inhibition assay; assay type: cell-based; details: Homo sapiens; Ovarian, OVCAR-5
[17] = system: U251; experiment: NCI 60-cell line growth inhibition assay; assay type: cell-based; details: Homo sapiens, U-251; CNS, U251
[18] = system: SW-620; experiment: NCI 60-cell line growth inhibition assay; assay type: cell-based; details: Homo sapiens; Colon, SW-620
[19] = system: UACC-62; experiment: NCI 60-cell line growth inhibition assay; assay type: cell-based; details: Homo sapiens; Melanoma, UACC-62
[20] = system: HT29; experiment: NCI 60-cell line growth inhibition assay; assay type: cell-based; details: Homo sapiens, HT-29; Colon, HT29
[21] = system: OVCAR-3; experiment: NCI 60-cell line growth inhibition assay; assay type: cell-based; details: Homo sapiens; Ovarian, OVCAR-3
[22] = system: CCRF-CEM; experiment: NCI 60-cell line growth inhibition assay; assay type: cell-based; details: Homo sapiens; Leukemia, CCRF-CEM
[23] = system: M14; experiment: NCI 60-cell line growth inhibition assay; assay type: cell-based; details: Homo sapiens; Melanoma, M14
[24] = system: UACC-257; experiment: NCI 60-cell line growth inhibition assay; assay type: cell-based; details: Homo sapiens; Melanoma, UACC-257
[25] = system: RXF 393; experiment: NCI 60-cell line growth inhibition assay; assay type: cell-based; details: Homo sapiens; Renal, RXF 393
[26] = system: LOX IMVI; experiment: NCI 60-cell line growth inhibition assay; assay type: cell-based; details: Homo sapiens; Melanoma, LOX IMVI
[27] = system: CAKI-1; experiment: NCI 60-cell line growth inhibition assay; assay type: cell-based; details: Homo sapiens; Renal, CAKI-1
[28] = system: SR; experiment: NCI 60-cell line growth inhibition assay; assay type: cell-based; details: Homo sapiens; Leukemia, SR
[29] = system: UO-31; experiment: NCI 60-cell line growth inhibition assay; assay type: cell-based; details: Homo sapiens; Renal, UO-31
[30] = system: KM12; experiment: NCI 60-cell line growth inhibition assay; assay type: cell-based; details: Homo sapiens; Colon, KM12
[31] = system: K-562; experiment: NCI 60-cell line growth inhibition assay; assay type: cell-based; details: Homo sapiens, K562; Leukemia, K-562
[32] = system: ACHN; experiment: NCI 60-cell line growth inhibition assay; assay type: cell-based; details: Homo sapiens; Renal, ACHN
[33] = system: MDA-MB-231/ATCC; experiment: NCI 60-cell line growth inhibition assay; assay type: cell-based; details: Homo sapiens; Breast, MDA-MB-231/ATCC
[34] = system: SF-268; experiment: NCI 60-cell line growth inhibition assay; assay type: cell-based; details: Homo sapiens; CNS, SF-268
[35] = system: SNB-19; experiment: NCI 60-cell line growth inhibition assay; assay type: cell-based; details: Homo sapiens; CNS, SNB-19
[36] = system: OVCAR-8; experiment: NCI 60-cell line growth inhibition assay; assay type: cell-based; details: Homo sapiens; Ovarian, OVCAR-8
[37] = system: HL-60(TB); experiment: NCI 60-cell line growth inhibition assay; assay type: cell-based; details: Homo sapiens; Leukemia, HL-60(TB)
[38] = system: Tumor Cells in Hollow Fibers; experiment: NCI Hollow Fiber Assay (in vivo evaluation); details: for IP Score: IP fibers; for SC score: SC fibers
[39] = system: HCC-2998; experiment: NCI 60-cell line growth inhibition assay; assay type: cell-based; details: Homo sapiens; Colon, HCC-2998
[40] = system: MALME-3M; experiment: NCI 60-cell line growth inhibition assay; assay type: cell-based; details: Homo sapiens; Melanoma, MALME-3M
[41] = system: IGROV1; experiment: NCI 60-cell line growth inhibition assay; assay type: cell-based; details: Homo sapiens, IGROV-1; Ovarian, IGROV1
[42] = system: SK-MEL-28; experiment: NCI 60-cell line growth inhibition assay; assay type: cell-based; details: Homo sapiens; Melanoma, SK-MEL-28
[43] = system: T-47D; experiment: NCI 60-cell line growth inhibition assay; assay type: cell-based; details: Homo sapiens, T47D; Breast, T-47D
[44] = system: SF-295; experiment: NCI 60-cell line growth inhibition assay; assay type: cell-based; details: Homo sapiens; CNS, SF-295
[45] = system: BT-549; experiment: NCI 60-cell line growth inhibition assay; assay type: cell-based; details: Homo sapiens; Breast, BT-549
[46] = system: NCI-H522; experiment: NCI 60-cell line growth inhibition assay; assay type: cell-based; details: Homo sapiens; Non-Small Cell Lung, NCI-H522
[47] = system: OVCAR-4; experiment: NCI 60-cell line growth inhibition assay; assay type: cell-based; details: Homo sapiens; Ovarian, OVCAR-4
[48] = system: NCI/ADR-RES; experiment: NCI 60-cell line growth inhibition assay; assay type: cell-based; details: Homo sapiens; Breast, NCI/ADR-RES
[49] = system: DU-145; experiment: NCI 60-cell line growth inhibition assay; assay type: cell-based; details: Homo sapiens; Prostate, DU-145
[50] = system: HOP-62; experiment: NCI 60-cell line growth inhibition assay; assay type: cell-based; details: Homo sapiens; Non-Small Cell Lung, HOP-62
[51] = system: HCT-116; experiment: NCI 60-cell line growth inhibition assay; assay type: cell-based; details: Homo sapiens; Colon, HCT-116
[52] = system: 786-0; experiment: NCI 60-cell line growth inhibition assay; assay type: cell-based; details: Homo sapiens; Renal, 786-0
[53] = system: NCI-H23; experiment: NCI 60-cell line growth inhibition assay; assay type: cell-based; details: Homo sapiens; Non-Small Cell Lung, NCI-H23
[54] = system: RPMI-8226; experiment: NCI 60-cell line growth inhibition assay; assay type: cell-based; details: Homo sapiens; Leukemia, RPMI-8226
[55] = system: SK-MEL-5; experiment: NCI 60-cell line growth inhibition assay; assay type: cell-based; details: Homo sapiens; Melanoma, SK-MEL-5
[56] = system: SF-539; experiment: NCI 60-cell line growth inhibition assay; assay type: cell-based; details: Homo sapiens; CNS, SF-539
[57] = target: CyclinA/cdk2 (Homo sapiens, UniProt P24941); experiment: CyclinA/cdk2 protein kinase assay (histone H1 phosphorylation); details: IC50 CyclinA/cdk2, complex immunopurified from HeLa cells; 15 μM ATP; replicate experiments
[58] = target: CyclinE/cdk2 (Homo sapiens, UniProt P24941); experiment: CyclinE/cdk2 protein kinase assay (histone H1 phosphorylation); details: IC50 CyclinE/cdk2, complex immunopurified from HeLa cells; 15 μM ATP; replicate experiments

Compound `CC[C@H](CO)Nc1nc(NCc2ccc(-c3cccc(C(F)(F)F)c3)cc2)c2ncn(C(C)C)c2n1` [Compound 38] has a GI50 [1] of 3.16 µM, a GI50 [2] of 0.2 µM and a GI50 [3] of 0.4 µM. The GI50 [4] was 600 nM, the GI50 [5] was 130 nM and the MTD [6] was 100 mg/kg. It also gave a GI50 [7] of 0.4 µM, a GI50 [8] of 200 nM and a GI50 [9] of 50 nM. It also gave a GI50 [10] of 2 µM, a GI50 [11] of 0.4 µM and a GI50 [12] of 0.25 µM. For the same compound, the GI50 [13] was 250 nM, the GI50 [14] was 0.16 µM and the GI50 [15] was 3.98 µM. The GI50 [16] was 0.4 µM, the GI50 [17] was 200 nM and the GI50 [18] was 30 nM. The GI50 [19] was 1 µM, the GI50 [20] was 0.25 µM and the GI50 [21] was 1 µM. It also gave a GI50 [22] of 200 nM, a GI50 [23] of 0.05 µM and a GI50 [24] of 0.5 µM. The GI50 [25] was 130 nM, the GI50 [26] was 0.4 µM and the GI50 [27] was 200 nM. It also gave a GI50 [28] of 3.98 µM, a GI50 [29] of 0.13 µM and a GI50 [30] of 160 nM. The GI50 [31] was 250 nM, the GI50 [32] was 2 µM and the GI50 [33] was 60 nM. It also gave a GI50 [34] of 0.2 µM, a GI50 [35] of 0.5 µM and a GI50 [36] of 0.25 µM. For the same compound, the GI50 [37] was 40 nM, the “IP Score” value [38] was 0 and the SC score [38] was 4. The GI50 [39] was 7.94 µM, the GI50 [40] was 0.25 µM and the GI50 [41] was 0.16 µM. For the same compound, the GI50 [42] was 30 nM, the GI50 [43] was 250 nM and the GI50 [44] was 0.5 µM.
With `C=Cc1ccc(-c2ccc(CNc3nc(N[C@H](CC)CO)nc4c3ncn4C(C)C)cc2)cc1` [Compound 33] the GI50 [1] was 25.7 µM, the GI50 [2] was 6.9 µM and the GI50 [3] was 8.3 µM. It also gave a GI50 [45] of 51.3 µM, a GI50 [5] of 4600 nM and a GI50 [7] of 38.9 µM. The GI50 [8] was 5200 nM, the GI50 [9] was 4900 nM and the GI50 [46] was 4.2 µM. The GI50 [10] was > 1000 µM, the GI50 [11] was > 1000 µM and the GI50 [12] was 8.9 µM. It also gave a GI50 [13] of 3800 nM, a GI50 [47] of 31.6 µM and a GI50 [14] of 7.8 µM. The GI50 [15] was > 1000 µM, the GI50 [16] was > 1000 µM and the GI50 [17] was 3700 nM. It also gave a GI50 [18] of 2900 nM, a GI50 [19] of 8.3 µM and a GI50 [20] of 8.9 µM. For the same compound, the GI50 [21] was > 1000 µM, the GI50 [48] was 6.3 µM and the GI50 [49] was 17.8 µM. For the same compound, the GI50 [22] was 4600 nM, the GI50 [23] was 7.8 µM and the GI50 [24] was 75.9 µM. The GI50 [50] was > 1 mM, the GI50 [26] was 16.6 µM and the GI50 [27] was 4400 nM. The GI50 [28] was 4.5 µM, the GI50 [51] was 6.2 µM and the GI50 [29] was 8.1 µM. It also gave a GI50 [30] of 4100 nM, a GI50 [52] of 18.6 µM and a GI50 [31] of 3100 nM. For the same compound, the GI50 [32] was 5.2 µM, the GI50 [53] was 26.3 µM and the GI50 [54] was 1500 nM. For the same compound, the GI50 [55] was 16.2 µM, the GI50 [34] was 6.3 µM and the GI50 [35] was 38 µM. The GI50 [36] was 6.6 µM, the GI50 [37] was 3200 nM and the GI50 [39] was > 1000 µM. For the same compound, the GI50 [40] was 11.7 µM, the GI50 [41] was 10 µM and the GI50 [56] was 89.1 µM. The GI50 [42] was 5900 nM, the GI50 [43] was 3900 nM and the GI50 [44] was 7.8 µM.
Compound `CC(=O)N[C@H]1CC[C@H](Nc2nc(NCc3ccc(-c4ccsc4)cc3)c3ncn(C(C)C)c3n2)CC1` [Compound 113] has an MTD [6] of 200 mg/kg, an IC50 [57] of 400 nM and an IC50 [58] of 300 nM. For the same compound, the “Cell Types Killed” value [38] was “OVCAR-3”, the “IP Score” value [38] was 18 and the SC score [38] was 4.
